This is an account of results in US20110195911A1, “SYNTHETIC ANALOGS OF THE JUXTAMEMBRANE DOMAIN OF IGF1R AND USES THEREOF” (THE UNITED STATES OF AMERICA,AS REPRESENTED BY THE …, priority 2008, published 2011).

For experiment [1], the system named is MCF-7 breast cancer cells. The experiment can be described thus: MTT cell toxicity assay in MCF-7 breast cancer cells. The following applies: MCF-7 cells, MTT. It counts as cell-based. Summed up: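 MCF-7 cells seeded in 1% FBS medium, grown 24 h, then exposed to compounds at 0.1, 0.5, 2.5 or 5.0 μM (final, 0.5% FBS) for 48 h. MTT absorbance at 544 nm; growth relative to time-zero and untreated controls gave GI50 (50% growth inhibition) and TGI (zero net growth).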
In general terms: Formazan colour is commonly taken as a measure of viable cells.

The test system of experiment [2] is AKT kinase. Put plainly: OMNIA fluorogenic AKT kinase activity assay in lysates of IGF-1-stimulated MCF-7 cells, FIG. 3. The experiment is classed as cell-based. The following applies: MCF-7 stimulated with IGF-1, inhibitor 0 to 0.5 μM to 2.5 μM. How it is done: AKT Kinase Assay: OMNIA™ fluorogenic AKT Kinase Activity Assay Kit (BioSource through Invitrogen) was used for the measurement of AKT activity in cell lysates. To prepare for the cell treatment, MCF-7 cells were seeded into four wells on a six-well plate in RPMI medium. The medium was supplemented with 10% Fetal Bovine Serum to aid the cell attachment. The cells were incubated for 24 hours, after which time the 10% serum medium was aspirated and replaced with 2 mL of no-serum medium. The cells were starved overnight to stop the signaling from the FBS. On the third day, the medium was replaced and different dilutions of peptide diluted in no-serum medium was added to the four wells. Well 1 & 2 had 0.0 μM of 18, well 3 0.5 and well 4 2.5 μM.
The cells were placed on ice briefly to aid in detaching and then scraped from the bottom of the wells and rinsed with cold PBS. The cells suspended in PBS were collected and centrifuged for 5 minutes at 1500 rpm at 4° C. and the medium aspirated. […]
Master mix AKT fluorogenic substrate was prepared according to the protocol provided by BioSource. […] The fluorescence was excited at 360 nm and read at 485 nm for a length of 60 minutes every thirty seconds on a FLUOstar/POLARstar Galaxy (BMG Lab Technologies GmbH) microplate reader. […]

In general, TGI refers to the concentration giving total growth inhibition.

Where a SMILES comes first, the peptide text is derived from it. [ ]: non-standard residue; d: D form. The star is where a group is joined. Palmitoyl = CCCCCCCCCCCCCCCC(=O)*

For `CCCCCCCCCCCCCCCC(=O)NCCCC[C@@H](NC(=O)[C@@H](CCCNC(=N)N)NC(=O)[C@@H](CC(N)=O)NC(=O)[C@@H](CC(N)=O)NC(=O)[C@@H](CO)NC(=O)[C@@H](CCCNC(=N)N)NC(=O)[C@@H](CC(C)C)NC(=O)CNC(=O)[C@@H](CC(N)=O)NC(=O)CNC(=O)[C@H](NC(=O)[C@@H](CC(C)C)NC(=O)[C@@H](Cc1ccc(O)cc1)NC(C)=O)C(C)C)C(N)=O` [Peptide 18, Ac-YLVGNGLRSNNRK-(ε-Pal)] (Ac-[dY][dL][dV]G[dN]G[dL][dR][dS][dN][dN][dR][dK](Palmitoyl)-NH2; C-terminus assumed), the TGI in experiment [1] (final 0.5% FBS, two days with compound, concentration of total growth inhibition (cytostatic)) came to 400 ± 20 nM. Further, the “growth inhibition / potency in MCF-7 cells (in words)” value in experiment [1] (comparison with related peptides) is “increased the potency”. The AKT enzyme activity result in experiment [2] is “decreased to undetectable levels”.
